Data published in patent publication US10570104B2, “Metabolically programmed metal chelators and uses thereof” (University of Florida Research Foundation, Incorporated, priority 2015, dated 2020).
“Also recorded” adds a separate entry of the source. Read-outs that look alike come from different tables or passages of the source.

How the values were obtained:
[1] = po, 150 μmol/kg; historical; cited from earlier work
[2] = log Papp, octanol/TRIS buffer pH 7.4, shake flask direct method; assay type: physicochemical; details: not told
Excerpt: The redesign of 2 was predicated on the observation that both ligands 2 and 3 were orally active iron chelators in rodents and primates (Table 1), and that when the 4′-(OH) of 2 was methylated, providing (S)-4,5-dihydro-2-(2-hydroxy-4-methoxyphenyl)-4-methyl-4-thiazolecarboxylic acid^43 [(S)-4′-(CH3O)-DADFT, 4], there was a remarkable enhancement in both ICE and lipophilicity (log Papp). The log Papp data are expressed as the log of the fraction of the chelator seen in the octanol layer; measurements were done in TRIS buffer, pH 7.4, using a “shake flask” direct method.^49 The more negative the log Papp, the less chelator is in the octanol phase, the less lipophilic. Unfortunately, the increase in ICE of 4 came with a concomitant increase in toxicity.^50 Thus, the delicate balance between the increase in ICE and toxicity with enhanced lipophilicity needed to be understood and exploited.

[3] = po, cited from earlier work; for Rodent ICE (%): historical
[4] = rats, sc, 300 mol/kg (so in the source); liver; 2 hours post drug; cited from earlier work
[5] = even when administered b.i.d.; cited from earlier work
[6] = 10-day toxicity trial of (S)-4′-(HO)-DADFT-HXA (11) in rats
Protocol: Note that this dose is equivalent to 100 mg/kg/day of DFT (1) as its sodium salt. The rats were housed in individual metabolic cages and were weighed each day. […] The rats were fasted overnight and were given the chelator first thing in the morning. […] The animals were euthanized one day post drug (day 11). […] Additional age-matched rats served as untreated controls for the CBC and serum chemistries and histopathology. No urine was collected from these animals. The studies were performed on rats with normal iron stores.
Aten-day toxicity trial of 11 was carried out in male Sprague-Dawley rats. The animals were housed in individual metabolic cages. […] Note that this dose is equivalent to 100 mg/kg/day of DFT (1) as its sodium salt. Urine was collected from the metabolic cages at 24-hour intervals and assessed for its Kim-1 content. The studies were performed on rats with normal iron stores; each animal served as its own control. Additional age-matched rats served as untreated controls for the CBC and serum chemistry assessments and histopathology.

[7] = Tissue distribution/metabolism of chelators in rats given sc (HPLC); assay type: in vivo, Sprague-Dawley rats
Protocol: Collection of Chelator Tissue Distribution Samples from Rodents. Male Sprague-Dawley rats (250-350 g) were given a single subcutaneously injection of the monosodium salts of 8 and 11 prepared as described above at a dose of […]. At times 0.5, 1, 2, 4 and 8 hours after dosing (n=3 rats per time point), the animals were euthanized by exposure to CO2 gas. Blood was obtained via cardiac puncture into vacutainers containing sodium citrate. The blood was centrifuged, and the plasma was separated for analysis. The liver, kidney, heart, and pancreas were removed from the animals and frozen.
Tissue Analytical Methods. Tissue samples of animals treated with 8 were prepared for HPLC analysis by homogenizing them in H2O at a ratio of 1:1 (w/v). Then, as a rinse, CH3OH at a ratio of 1:3 (w/v) was added, and the mixture was stored at −20° C. for 30 min. This homogenate was centrifuged. The supernatant was diluted with H2O, vortexed, and filtered with a 0.2 μm membrane. Analytical separation was performed on a Supelco Discovery RP Amide C16 HPLC system with UV detection at 310 nm as described previously.^44,75 Mobile phase and chromatographic conditions were as follows: solvent A, 5% CH3CN/95% buffer (25 mM KH2PO4+2.5 mM 1-octanesulfonic acid, pH 3.0); solvent B, 60% CH3CN/40% buffer.
Tissue samples of animals treated with 11 were prepared for HPLC analysis by homogenizing them in 0.5 N HClO4 at a ratio of 1:3 (w/v). Then, as a rinse, CH3OH at a ratio of 1:3 (w/v) was added, and the mixture was stored at −20° C. for 30 min. This homogenate was centrifuged. The supernatant was diluted with 95% buffer (25 mM KH2PO4, pH 3.0)/5% CH3CN, vortexed, and filtered with a 0.2 μm membrane. Analytical separation was performed on a Supelco Ascentis Express RP-Amide HPLC system with UV detection at 310 nm as described previously. Mobile phase and chromatographic conditions were as for 8.
Ligand concentrations were calculated from the peak area fitted to calibration curves by nonweighted least-squares linear regression with Shimadzu Class-VP 7.4 software.

[8] = Chelator-induced iron clearance (ICE) in iron-overloaded Cebus apella primates; assay type: in vivo, Cebus apella monkeys; details: po, 75 μmol/kg, monosodium salt
Protocol: Iron Loading of Cebus apella Monkeys. The monkeys (3.5-6.5 kg) were iron overloaded with intravenous iron dextran as specified in earlier publications to provide about 500 mg of iron per kg of body weight; the serum transferrin iron saturation rose to between 70 and 80%.^38,40 At least 20 half-lives, 60 days, elapsed before any of the animals were used in experiments evaluating iron-chelating agents.
Primate Fecal and Urine Samples. Fecal and urine samples were collected at 24 hours intervals and processed as described previously^38,40,74 Briefly, the collections began 4 days prior to the administration of the test drug and continued for an additional 5 days after the drug was given. Iron concentrations were determined by flame absorption spectroscopy as presented in other publications.^38′^40
Drug Preparation and Administration.
Calculation of Chelator Iron Clearing Efficiency (ICE).

[9] = treated rats, one day post drug, 384 μmol/kg/day po x 10 days

In the case of `COc1ccc(C2=N[C@@](C)(C(=O)O)CS2)c(O)c1` [Compound 4, (S)-4,5-dihydro-2-(2-hydroxy-4-methoxyphenyl)-4-methyl-4-thiazolecarboxylic acid], the “Primate ICE (%)” value [1] is listed as 24.4 ± 10.8%, the “Log Papp” value [2] is listed as −0.70 and the “Rodent ICE (%)” value ([3]; 300 μmol/kg) is listed as 6.6 ± 2.8%. The “proportion of administered compound cleaved to its hydroxy metabolite (2 or 3)” value (“proportion” below) [4] was “about 30%”.

In the case of `COCCOCCOCCOc1ccc(C2=N[C@@](C)(C(=O)O)CS2)c(O)c1` [Compound 5, (S)-4,5-dihydro-2-[2-hydroxy-4-(3,6,9-trioxadecyloxy)phenyl]-4-methyl-4-thiazolecarboxylic acid], the “renal toxicity” value [5] is given as “no renal toxicity”, the “Primate ICE (%)” value [1] is given as 25.4 ± 7.4% and the “Log Papp” value [2] is given as −1.10. For the same compound, the “Rodent ICE (%)” value ([3]; 300 μmol/kg) was 5.5 ± 1.9% and the “proportion” value [4] was 2%.

In the case of `COCCOCCOCCOc1cccc(C2=N[C@@](C)(C(=O)O)CS2)c1O` [Compound 6, (S)-4,5-dihydro-2-[2-hydroxy-3-(3,6,9-trioxadecyloxy)phenyl]-4-methyl-4-thiazolecarboxylic acid], the “renal toxicity” value [5] is given as “no renal toxicity”, the “Primate ICE (%)” value [1] is given as 23.0 ± 4.1% and the “Log Papp” value [2] is given as −1.22. For the same compound, the ICE ([3]; 150 μmol/kg, compound 6 dose response) was 18.7±2.9%, the iron decorporated ([3]; 150 μmol/kg) was 0.782 ± 0.121 mg/kg and the “Rodent ICE (%)” value ([3]; 300 μmol/kg, 48 hour sample collection period) was 10.6±4.4%. For the same compound, the “quantity of iron excreted” value ([3]; 300 μmol/kg) was 0.887 ± 0.367 mg/kg and the “proportion” value [4] was 2.6%.

In the case of `C[C@]1(C(=O)O)CSC(c2ccc(OCCCCCCO)cc2O)=N1` [Compound 11, (S)-4,5-dihydro-2-[2-hydroxy-4-(6-hydroxyhexyloxy)phenyl]-4-methyl-4-thiazolecarboxylic acid], the “urinary Kim-1 excretion” value ([6]; baseline and not exceeded during the 10-day exposure, 384 μmol/kg/day po) is reported as less than 20 ng/kg/24 hours, the “histopathology” value ([6]; extensive tissues (25/rat), 384 μmol/kg/day po x 10 days) is reported as “did not identify any drug-related abnormalities” and the “survival / overall toxicity” value ([6]; rats, po once daily for 10 days, 384 μmol/kg/day) is reported as “All of the rats treated with 11 survived the exposure to the drug; also recorded: lack of toxicity”. For the same compound, the BUN [6, 9] was 20 ± 4 mg/dL, the SCr [6, 9] was 0.5 ± 0.1 mg/dL and the “conversion of 11 to 12-14” value ([7]; sc 11, 300 μmol/kg) was “Significant conversion of 11→12-14 was found in all of the tissues examined; also recorded: quickly converted to the corresponding hydrophilic metabolites; also recorded: quickly converted to the corresponding hydrophilic acids 12, 13, and 14; also recorded: very quickly converted to the corresponding acid (12)”. The tissue concentration ([7]; sc 11, heart, 0.5 hour) was 26 nmol/g wet weight, the “detection in kidney” value ([7]; sc 11, kidney) was “trace amounts 0.5 hour post drug” and the “detection in liver” value ([7]; sc 11, liver) was “not found in the liver at any of the time points”. The tissue concentration ([7]; sc 11, pancreas, 0.5 hour) was less than 5 nmol/g wet weight, the “detection in plasma” value ([7]; sc 11, plasma) was “no longer detectable” and the “share of total (parent+metabolites)” value ([7]; sc 11, plasma, 0.5 hour) was 22%. For the same compound, the “Log Papp” value [2] was 0.21, the “Rat ICE (%)” value (po, 300 μmol/kg, monosodium salt) was 9.9 ± 0.8% and the “oral absorption” value (rats, po) was “well absorbed”. The “overt toxicity” value (rats, po 300 μmol/kg, single dose) was “did not present with any overt toxicity; also recorded: did not display any overt toxicity; also recorded: did not elicit any signs of overt toxicity” and the “Cebus ICE (%)” value [8] was 21.9±3.6%.
